Source: paper PMC4764579, “Structural insights into the mechanism of activation of the TRPV1 channel by a membrane-bound tarantula toxin” (eLife, 2016)
Positions of bridges follow the written chain, without caps; N, C: chain ends. Residues, ends and D or L forms follow the SMILES beside them.

Assay: Membrane partitioning of toxins into lipid vesicles measured using Trp fluorescence
Assay type: physicochemical
Conditions: Trp fluorescence, excitation 280 nm, F/F0 at 320 nm; LUVs 1:1 POPC:POPG extruded through 100 nm; toxin 2 or 5 µM in 10 mM HEPES, 1 mM EDTA, pH 7.0; available lipid 60% of total; fit of partition function; ± SEM, n = 3 or 4; SEM
Source text: Motivated by the amphipathic character evident in the structure of DkTx, together with the placement of the toxin at the protein-lipid interface when bound to TRPV1, we investigated the interaction of DkTx and each of its two lobes with lipid membranes. For these experiments, we took advantage of the presence of a single conserved and solvent accessible Trp residue in loop 2 of both K1 and K2 (Figure 1C,D; W11 and W53), and used Trp fluorescence to monitor the partitioning of the toxin from the aqueous solution into the membrane environment ([Gupta et al., 2015]; [Ladokhin et al., 2000]; [Milescu et al., 2007]). When aqueous solutions of DkTx were excited at a wavelength of 280 nm, emission spectra with maxima at 353 nm were obtained (Figure 5A, left), as expected for Trp residues residing in such an environment. […] To quantify the extent of partitioning as a function of lipid concentration, we measured the relative fluorescence intensity in a blue-shifted region of the spectra (e.g. 320 nm) as a function of lipid concentration, and fit a partition function to the data to obtain a mole-fraction partition coefficient (Kx) of (2.3 ± 0.7) × 10^6, indicating an energetically favorable interaction of DkTx with lipid membranes (Figure 5A, right). This strong interaction of DkTx with membranes would facilitate binding of the toxin to the channel by increasing the local concentration of the toxin near the channel and by a reduction in the dimensionality of diffusion within the membrane ([Axelrod and Wang, 1994]).
Figure 5. Interaction of DkTx and toxin constructs with lipid membranes measured using Trp fluorescence. (A–E, left panel) Trp emission spectra of DkTx (A), K1 without linker (B), K2 (C), bivalent K1 (K1K1) (D) and bivalent K2 (K2K2) (E) in the absence (black) and presence (blue, 1.6 mM for DkTx, 2 mM for K1-ΔL and K1K1, and 3 mM for K2 and K2K2) of lipid vesicles (1:1 mix of POPC:POPG). (A–E, right panel) Relative fluorescence intensity at 320 nm (F/F0) as a function of available lipid concentrations (60% of total lipid concentration). Smooth curves correspond to partition functions with Kx = (2.3 ± 0.7) × 10^6 and F/F0^max = 2.65 ± 0.08 for DkTx, Kx = (3.9 ± 1.1) × 10^5 and F/F0^max = 2.63 ± 0.07 for K1-ΔL, Kx = (2.0 ± 0.3) × 10^4 and F/F0^max = 3.71 ± 0.40 for K2, Kx = (2.9 ± 0.3) × 10^6 and F/F0^max = 2.47 ± 0.03 for K1K1 and Kx = (8.1 ± 2) × 10^5 and F/F0^max = 2.77 ± 0.55 for K2K2. Error bars correspond to SEM (n = 3 or 4). Partition functions for K1-ΔL and K2 are shown as dotted lines for comparison in D and E, respectively. (F) Comparisons of mole-fraction partition coefficient (Kx) of toxins. 7G-DkTx denotes a construct of DkTx whose linker (PYVPVTT) is replaced with 7 Gly residues. Error bars correspond to SEM (n = 3 or 4). DOI: http://dx.doi.org/10.7554/eLife.11273.020 Figure 5—figure supplement 1. Interaction of K1-K2 chimeras with lipid membranes measured using Trp fluorescence. (A–E, left panel) Trp emission spectra of K1(D1N) (A), K1(K2L2) (B), K1(K2L3) (C), K1(K2L4) (D) and K1(K2CT) (E) in the absence (black) and presence (blue, 2 mM) of lipid vesicles (1:1 mix of POPC:POPG). (A–D, right panel) Relative fluorescence intensity at 320 nm (F/F0) as a function of available lipid concentrations (60% of total lipid concentration). Smooth curves correspond to partition functions with Kx = (1.76 ± 0.06) × 10^6 and F/F0^max = 3.79 ± 0.02 for K1(D1N), Kx = (4.77 ± 1.39) × 10^5 and F/F0^max = 1.31 ± 0.02 for K1(K2L2), Kx = (1.02 ± 0.04) × 10^4 and F/F0^max = 3.69 ± 0.02 for K1(K2L3), and Kx = (0.90 ± 0.04) × 10^6 and F/F0^max = 2.59 ± 0.02 for K1(K2L4). Error bar corresponds to SEM (n = 3 or 4). Smooth curve of K1-ΔL was shown as a dotted line for comparison throughout the figures. (F) Comparisons of mole-fraction partition coefficient (Kx) of toxins. Error bars correspond to SEM (n = 3 or 4). DOI: http://dx.doi.org/10.7554/eLife.11273.021 [drawing 10] […]

Question: For CC[C@H](C)[C@@H]1NC(=O)[C@H](Cc2ccccc2)NC(=O)[C@H](CCC(=O)O)NC(=O)[C@H](CCSC)NC(=O)[C@@H]2CCCN2C(=O)[C@@H]2CSSC[C@@H]3NC(=O)[C@H](C(C)C)NC(=O)[C@H](CCC(=O)O)NC(=O)CNC(=O)[C@H](CCC(=O)O)NC(=O)[C@H](CCCCN)NC(=O)[C@H](C)NC(=O)[C@@H](NC(=O)[C@@H](N)CC(N)=O)CSSC[C@H](NC(=O)[C@H](CSSC[C@@H](C(=O)N[C@@H](CCCCN)C(=O)N[C@@H](CCCCN)C(=O)N[C@@H](Cc4ccc(O)cc4)C(=O)N[C@@H](CCCCN)C(=O)O)NC(=O)[C@H](Cc4c[nH]cn4)NC(=O)[C@@H]4CCCN4C1=O)NC(=O)[C@H](CCCCN)NC(=O)[C@H](CCCCN)NC(=O)CNC(=O)[C@H](Cc1c[nH]c4ccccc14)NC(=O)[C@H](CO)NC3=O)C(=O)N[C@@H](CC(=O)O)C(=O)N[C@@H](CC(C)C)C(=O)N[C@@H](CC(=O)O)C(=O)N[C@@H](CC(N)=O)C(=O)N[C@@H](Cc1ccccc1)C(=O)N[C@@H](Cc1ccc(O)cc1)C(=O)N2 [K1(D1N)] (H-NCAKEGEVCSWGKKCCDLDNFYCPMEFIPHCKKYK-OH; disulfide 2-16, 9-23, 15-31), which “mole-fraction partition coefficient (Kx)” value is on record?
Answer: Its value is “(1.76 ± 0.06) × 10^6”.

Question: Which “mole-fraction partition coefficient (Kx)” value does the source give for CC[C@H](C)[C@@H]1NC(=O)[C@H](Cc2ccccc2)NC(=O)[C@H](CCC(=O)O)NC(=O)[C@H](CCSC)NC(=O)[C@@H]2CCCN2C(=O)[C@@H]2CSSC[C@@H]3NC(=O)[C@H](C(C)C)NC(=O)[C@H](CCC(=O)O)NC(=O)CNC(=O)[C@H](CCC(=O)O)NC(=O)[C@H](CCCCN)NC(=O)[C@H](C)NC(=O)[C@@H](NC(=O)[C@@H](N)CC(=O)O)CSSC[C@H](NC(=O)[C@H](CSSC[C@@H](C(=O)N[C@@H](CCCCN)C(=O)N[C@@H](CCCCN)C(=O)N[C@@H](Cc4ccc(O)cc4)C(=O)N[C@@H](CCCCN)C(=O)O)NC(=O)[C@H](Cc4c[nH]cn4)NC(=O)[C@@H]4CCCN4C1=O)NC(=O)[C@H](CCCCN)NC(=O)[C@H](CO)NC(=O)CNC(=O)[C@H](Cc1c[nH]c4ccccc14)NC(=O)CNC3=O)C(=O)N[C@@H](CC(=O)O)C(=O)N[C@@H](CC(C)C)C(=O)N[C@@H](CC(=O)O)C(=O)N[C@@H](CC(N)=O)C(=O)N[C@@H](Cc1ccccc1)C(=O)N[C@@H](Cc1ccc(O)cc1)C(=O)N2 [K1(K2L2)] (H-DCAKEGEVCGWGSKCCDLDNFYCPMEFIPHCKKYK-OH; disulfide 2-16, 9-23, 15-31) here?
Answer: Its value is “(4.77 ± 1.39) × 10^5”.

Question: Which “mole-fraction partition coefficient (Kx)” value does the source give for CC[C@H](C)[C@@H]1NC(=O)[C@H](Cc2ccccc2)NC(=O)[C@H](CCC(=O)O)NC(=O)[C@H](CCSC)NC(=O)[C@@H]2CCCN2C(=O)[C@@H]2CSSC[C@@H]3NC(=O)[C@H](C(C)C)NC(=O)[C@H](CCC(=O)O)NC(=O)CNC(=O)[C@H](CCC(=O)O)NC(=O)[C@H](CCCCN)NC(=O)[C@H](C)NC(=O)[C@@H](NC(=O)[C@@H](N)CC(=O)O)CSSC[C@H](NC(=O)[C@H](CSSC[C@@H](C(=O)N[C@@H](CCCCN)C(=O)N[C@@H](CCCCN)C(=O)N[C@@H](Cc4ccc(O)cc4)C(=O)N[C@@H](CCCCN)C(=O)O)NC(=O)[C@H](Cc4c[nH]cn4)NC(=O)[C@@H]4CCCN4C1=O)NC(=O)[C@H](CCCCN)NC(=O)[C@H](CCCCN)NC(=O)CNC(=O)[C@H](Cc1c[nH]c4ccccc14)NC(=O)[C@H](CO)NC3=O)C(=O)N[C@@H](Cc1c[nH]cn1)C(=O)NCC(=O)N[C@@H](CC(C)C)C(=O)N[C@@H](CC(=O)O)C(=O)N2 [K1(K2L3)] (H-DCAKEGEVCSWGKKCCHGLDCPMEFIPHCKKYK-OH; disulfide 2-16, 9-21, 15-29) here?
Answer: The value was “(1.02 ± 0.04) × 10^4”.

Question: For CC[C@H](C)[C@@H]1NC(=O)[C@H](Cc2ccccc2)NC(=O)[C@H](C)NC(=O)[C@H](CC(C)C)NC(=O)[C@@H]2CCCN2C(=O)[C@@H]2CSSC[C@@H]3NC(=O)[C@H](C(C)C)NC(=O)[C@H](CCC(=O)O)NC(=O)CNC(=O)[C@H](CCC(=O)O)NC(=O)[C@H](CCCCN)NC(=O)[C@H](C)NC(=O)[C@@H](NC(=O)[C@@H](N)CC(=O)O)CSSC[C@H](NC(=O)[C@H](CSSC[C@@H](C(=O)N[C@@H](CCCCN)C(=O)N[C@@H](CCCCN)C(=O)N[C@@H](Cc4ccc(O)cc4)C(=O)N[C@@H](CCCCN)C(=O)O)NC(=O)[C@H](Cc4ccc(O)cc4)NC(=O)[C@@H]4CCCN4C1=O)NC(=O)[C@H](CCCCN)NC(=O)[C@H](CCCCN)NC(=O)CNC(=O)[C@H](Cc1c[nH]c4ccccc14)NC(=O)[C@H](CO)NC3=O)C(=O)N[C@@H](CC(=O)O)C(=O)N[C@@H](CC(C)C)C(=O)N[C@@H](CC(=O)O)C(=O)N[C@@H](CC(N)=O)C(=O)N[C@@H](Cc1ccccc1)C(=O)N[C@@H](Cc1ccc(O)cc1)C(=O)N2 [K1(K2L4)] (H-DCAKEGEVCSWGKKCCDLDNFYCPLAFIPYCKKYK-OH; disulfide 2-16, 9-23, 15-31), which “mole-fraction partition coefficient (Kx)” value is on record?
Answer: Its value is “(0.90 ± 0.04) × 10^6”.

Question: Which “mole-fraction partition coefficient (Kx)” value does the source give for CC[C@H](C)[C@@H]1NC(=O)[C@H](Cc2ccccc2)NC(=O)[C@H](CCC(=O)O)NC(=O)[C@H](CCSC)NC(=O)[C@@H]2CCCN2C(=O)[C@@H]2CSSC[C@@H]3NC(=O)[C@H](C(C)C)NC(=O)[C@H](CCC(=O)O)NC(=O)CNC(=O)[C@H](CCC(=O)O)NC(=O)[C@H](CCCCN)NC(=O)[C@H](C)NC(=O)[C@@H](NC(=O)[C@@H](N)CC(=O)O)CSSC[C@H](NC(=O)[C@H](CSSC[C@@H](C(=O)N[C@@H](CCCCN)C(=O)N[C@@H](CCCCN)C(=O)N[C@@H](Cc4ccc(O)cc4)C(=O)N[C@@H](CCCCN)C(=O)O)NC(=O)[C@H](Cc4c[nH]cn4)NC(=O)[C@@H]4CCCN4C1=O)NC(=O)[C@H](CCCCN)NC(=O)[C@H](CCCCN)NC(=O)CNC(=O)[C@H](Cc1c[nH]c4ccccc14)NC(=O)[C@H](CO)NC3=O)C(=O)N[C@@H](CC(=O)O)C(=O)N[C@@H](CC(C)C)C(=O)N[C@@H](CC(=O)O)C(=O)N[C@@H](CC(N)=O)C(=O)N[C@@H](Cc1ccccc1)C(=O)N[C@@H](Cc1ccc(O)cc1)C(=O)N2 [K1-ΔL] (H-DCAKEGEVCSWGKKCCDLDNFYCPMEFIPHCKKYK-OH; disulfide 2-16, 9-23, 15-31) here?
Answer: The value was “(3.9 ± 1.1) × 10^5”.
